Where a name gives a salt, the structure may show the parent alone.

Assay [1] addresses T1, Human fibrinogen receptor (αIIbβ3) (Homo sapiens, UniProt P05106+P08514).
T1 construct: Human fibrinogen receptor (αIIbβ3) was purified from outdated platelets; from tissue; host or cells: outdated human platelets
Briefly: Purified IIb/IIIa receptor assay (solid phase receptor assay, competition with biotinylated vitronectin). In kind it is binding. As to conditions: read-out: IIb/IIIa IC50. The essentials: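 Purified platelet αIIbβ3 coated overnight at 4 °C in TBS with 1.0 mM Ca/Mg/Mn, pH 7.4, then BSA-blocked. Compounds (top 1.0×10^−4 M) competed with 1 nM biotinylated vitronectin for 2 h at room temperature. Bound label detected by HRP anti-biotin, A450; values normalized to no-competitor controls, four-parameter fit.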

Assay [2] has as its target T2, Human vitronectin receptor (αvβ3) (Homo sapiens, UniProt P05106+P06756).
T2 construct: Human vitronectin receptor (αvβ3) was purified from human placenta; from tissue; host or cells: human placenta
Kind of assay: Vitronectin adhesion assay (solid phase receptor assay, competition with biotinylated vitronectin). The assay is classed as binding. Particulars: read-out: AvB3 IC50. The essentials:
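Purified human αvβ3 coated overnight at 4 °C in TBS with 1.0 mM Ca++, Mg++, Mn++, pH 7.4; compounds (top final 1.0×10^−4 M) competed with 1 nM biotinylated vitronectin for 2 h at room temperature. Bound ligand detected by HRP anti-biotin/OPD at A450; values normalized to no-competitor controls, four-parameter curve fit.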

For the compound `CCOC(=O)CC(NC(=O)CNC(=O)c1cccc(NC(=O)Nc2ccccc2)c1)c1ccc2c(c1)OCO2` (stereo not drawn) [Example 123, ethyl β-[[2-[[[3-3-[[(phenylamino)carbonyl]amino]phenyl]carbonyl]amino]acetyl]amino]-1,3-benzodioxole-5-propanoate], the IC50 in assay [1] worked out at 85500 nM; in assay [2] it was 11800 nM.
On the same counts, the results for `CCN/C(=N\C#N)Nc1cccc(C(=O)NCC(=O)NC(CC(=O)OCC)c2ccccc2)c1` (stereo not drawn) [Example 135, ethyl β-[[2-[[[3-[[(cyanoimino)(ethylamino)methyl]amino]phenyl]carbonyl]amino]acetyl]amino]benzenepropanoate] are > 100000 nM and 50700 nM.
The corresponding values for `CCOC(=O)CC(NC(=O)CNC(=O)c1cccc(N/C(=N/C#N)NCc2ccccn2)c1)c1ccccc1` (stereo not drawn) [Example 143, ethyl β-[[2-[[[3-[[(cyanoimino)[2-pyridinylmethyl)amino]methyl]amino]phenyl]carbonyl]amino]acetyl]amino]benzenepropanoate, trifluoroacetate salt] are > 100000 nM and 6700 nM.
The corresponding values for `CCOC(=O)CC(NC(=O)CNC(=O)c1cccc(N/C(=N\C#N)NCc2cccnc2)c1)c1ccccc1` (stereo not drawn) [Example 145, ethyl β-[[2-[[[3-[[(cyanoimino)[3-pyridinylmethyl)amino]methyl]amino]phenyl]carbonyl]amino]acetyl]amino]benzenepropanoate, trifluoroacetate salt] are > 100000 nM and 2720 nM.
`C#C[C@H](CC(=O)O)NC(=O)CNC(=O)c1cccc(N/C(=N\C#N)NCc2ccc(S(N)(=O)=O)cc2)c1` [Example 158, 3S-[[2-[[[3-[[[[(4-(aminosulfonyl)phenylmethyl]amino](cyanoimino)methyl]amino]phenyl]carbonyl]amino]acetyl]amino]-4-pentynoic acid, trifluoroacetate salt, monohydrate]: the figures for the IC50 in assay [1] and in assay [2] were 547 nM and 10.1 nM, respectively.
On the same counts, the results for `N#C/N=C(/N)Nc1cccc(C(=O)NCC(=O)NC(CC(=O)O)c2cc(Cl)cc(Cl)c2)c1` (stereo not drawn) [Example 160, β-[[2-[[[3-[[amino(cyanoimino)methyl]amino]phenyl]carbonyl]amino]acetyl]amino]-3,5-dichlorobenzenepropanoic acid] are 10400 nM and 25.6 nM.
On the same counts, the results for `CCOC(=O)/N=C(/NC(=O)OCC)Nc1cccc(C(=O)NCC(=O)NC(CC(=O)O)c2cc(Cl)cc(Cl)c2)c1` (stereo not drawn) [Example 166, 3,5-dichloro-β-[[2-[[[3-[[[(ethoxycarbonyl)amino][(ethoxycarbonyl)imino]methyl]amino]phenyl]carbonyl]amino]acetyl]amino]benzenepropanoic acid] are 45900 nM and 13000 nM.
Consider `N=C(N)Nc1cc(C(=O)NCC(=O)NC(CC(=O)O)c2cc(Cl)cc(Cl)c2)ccc1Cl` (stereo not drawn) [Example 168, β-[[2-[[[3-[(aminoiminomethyl)amino]-4-chlorophenyl]carbonyl]amino]acetyl]amino]-3,5-dichlorobenzenepropanoic acid, trifluoroacetate salt], for which the figures for the IC50 in assay [1] and in assay [2] were 269 nM and 2.29 nM, respectively.
The corresponding values for `C#C[C@H](CC(=O)O)NC(=O)CNC(=O)c1cccc(N/C(N)=N\C(N)=O)c1` [Example 171, 3S-[[2-[[[3-[[amino[(aminocarbonyl)imino]methyl]amino]phenyl]carbonyl]amino]acetyl]amino]-4-pentynoic acid, trifluoroacetate salt, hydrate] are 83.2 nM and 0.35 nM.
On the same counts, the results for `C#C[C@H](CC(=O)O)NC(=O)CNC(=O)c1ccc(Cl)c(NC(=N)N)c1` [Example 173, 3S-[[2-[[[3-[(aminoiminomethyl)amino]-4-chlorophenyl]carbonyl]amino]acetyl]amino]-4-pentynoic acid, trifluoroacetate salt] are 17.4 nM and 0.5 nM.
The corresponding values for `CCOC(=O)NC(=S)Nc1cccc(C(=O)NCC(=O)NC(CC(=O)O)c2cc(Cl)cc(Cl)c2)c1` (stereo not drawn) [Example 240, 3,5-dichloro-β-[[2-[[[3-[[[(ethoxycarbonyl)amino]thioxomethyl]amino]phenyl]carbonyl]amino]acetyl]amino]benzenepropanoic acid] are 76400 nM and 49400 nM.
On to `CCOC(=O)NC(=N)Nc1cccc(C(=O)NCC(=O)NC(CC(=O)O)c2cc(Cl)cc(Cl)c2)c1` (stereo not drawn) [Example 241, 3,5-dichloro-β-[[2-[[[3-[[[(ethoxycarbonyl)amino]iminomethyl]amino]phenyl]carbonyl]amino]acetyl]amino]benzenepropanoic acid, trifluoroacetate salt, monohydrate], for which the IC50 in assay [1] is 17200 nM; in assay [2], 557 nM.
The corresponding values for `N=C(N)Nc1cccc(C(=O)NCC(=O)NC(CC(=O)O)c2cccc(-c3ccccc3)c2)c1` (stereo not drawn) [Example 242, β-[[2-[[[3-[(aminoiminomethyl)amino]phenyl]carbonyl]amino]acetyl]amino][1,1′-biphenyl]-3-propanoic acid] are 533 nM and 2.28 nM.
As for `N=C(N)Nc1cccc(C(=O)NCC(=O)NC(CC(=O)O)c2cncnc2)c1` (stereo not drawn) [Example 243, β-[[2-[[[3-[(aminoiminomethyl)amino]phenyl]carbonyl]amino]acetyl]amino][pyrimidine-5-propanoic acid, trifluoroacetate salt], the results for the IC50 in assay [1] and in assay [2] were 23.6 nM and 0.35 nM, respectively.
As to `Cc1ccsc1C(CC(=O)O)NC(=O)CNC(=O)c1cccc(NC(=N)N)c1` (stereo not drawn) [Example 244, β-[[2-[[[3-[(aminoiminomethyl)amino]phenyl]carbonyl]amino]acetyl]amino]-3-methylthiophene-2-propanoic acid, trifluoroacetate salt], the figures for the IC50 in assay [1] and in assay [2] were 4560 nM and 17.6 nM, respectively.
With `CS(=O)(=O)c1cccc(C(CC(=O)O)NC(=O)CNC(=O)c2cccc(NC(=N)N)c2)c1` (stereo not drawn) [Example 247, β-[[2-[[[3-[(aminoiminomethyl)amino]phenyl]carbonyl]amino]acetyl]amino]-3-(methylsulfonyl)benzenepropanoic acid, bis(trifluoroacetate)salt], the IC50 was 417 nM in assay [1] and 1.24 nM in assay [2].
The corresponding values for `CCOc1cc(OCC)cc(C(CC(=O)O)NC(=O)CNC(=O)c2cccc(NC(=N)N)c2)c1` (stereo not drawn) [Example 249, β-[[2-[[[3-[(aminoiminomethyl)amino]phenyl]carbonyl]amino]acetyl]amino]-3,5-diethoxybenzenepropanoic acid, trifluoroacetate salt] are 244 nM and 5.31 nM.
Consider `N=C(N)Nc1cccc(C(=O)NCC(=O)NC(CC(=O)O)c2ccn[nH]2)c1` (stereo not drawn) [Example 252, β-[[2-[[[3-[(aminoiminomethyl)amino]phenyl]carbonyl]amino]acetyl]amino]-1H-pyrazole-3-propanoic acid, trifluoroacetate salt], for which the IC50 is 213 nM in assay [1] and 1.52 nM in assay [2].
In the case of `Cc1ccc(C(CC(=O)O)NC(=O)CNC(=O)c2cccc(NC(=N)N)c2)s1` (stereo not drawn) [Example 253, β-[[2-[[[3-[(aminoiminomethyl)amino]phenyl]carbonyl]amino]acetyl]amino]-5-methylthiophene-2-propanoic acid, trifluoroacetate salt], the IC50 came to 109 nM in assay [1] and 0.84 nM in assay [2].
